ChEMBL document CHEMBL1926619, “Structure and in vitro antiparasitic activity of constituents of Citropsis articulata root bark” (J Nat Prod, 2011)
Converted amounts (≈) assume the structure as drawn.

Key:
Leishmania donovani = assay: Antileishmanial activity against Leishmania donovani MHOM/ET/L82/LV9 promastigotes after 3 days by MTT assay; assay type: functional, organism-based; details: MHOM/ET/L82/LV9, 72 h
[1] = system: Trypanosoma brucei brucei; assay: Antitrypanosomal activity against Trypanosoma brucei brucei; assay type: functional, organism-based
Plasmodium falciparum = assay: microbe, parasite or virus in culture; assay type: functional, organism-based; details: FcB1/Columbia
Description: Antiplasmodial activity against chloroquine-resistant Plasmodium falciparum FcB1/Colombia infected in human A+ve erythrocytes assessed as inhibition of [G-3H]hypoxanthine uptake preincubated for 24 hrs prior to [G-3H]hypoxanthine addition measured after 18 hrs by liquid scintillation counting

Vero = assay: Cytotoxicity against african green monkey Vero cells; assay type: ADME, cell-based; details: Chlorocebus sabaeus
[2] = Selectivity index, ratio of IC50 for african green monkey Vero cells to IC50 for chloroquine-resistant Plasmodium falciparum FcB1/Colombia; assay type: toxicity, cell-based; details: read-out: Ratio IC50

SMILES	EC50 (Leishmania donovani) [µg/mL]	EC50 [1] [µg/mL]	IC50 (Plasmodium falciparum) [µg/mL]	IC50 (Vero) [µg/mL]	selectivity ratio [2]
N=C(N)c1ccc(OCCCCCOc2ccc(C(=N)N)cc2)cc1 [PENTAMIDINE]	3.1 (≈ 9.11 µM)	1.4 (≈ 4.11 µM)	–	–	–
C[n+]1cccc(C(=O)[O-])c1.Cl [TRIGONELLINE HYDROCHLORIDE]	> 125	> 125	> 100	> 50	–
COc1cc2oc(=O)ccc2cc1CC=C(C)C [SUBEROSIN]	> 125	> 125	> 100	> 50	–
COc1cc2c(c(O)c1OC)c(=O)c1cccc(O)c1n2C	20.4 (≈ 67.7 µM)	125 (≈ 415 µM)	3 (≈ 9.96 µM)	30.5 (≈ 101 µM)	10
NCCS[As](SCCN)c1ccc(Nc2nc(N)nc(N)n2)cc1 [CYMELARSEN]	–	1	–	–	–
CC1(C)C=Cc2c(ccc(CCC(=O)O)c2O[C@@H]2O[C@H](CO[C@@H]3O[C@H](CO)[C@@H](O)[C@H](O)[C@H]3O)[C@@H](O)[C@H](O)[C@H]2O)O1 [OMUBIOSIDE]	> 125	> 125	> 100	> 50	–
CC(C)=CCc1cc2ccc(=O)oc2cc1O [DEMETHYLSUBEROSIN]	120 (≈ 521 µM)	> 125	16.7 (≈ 72.5 µM)	> 50	–
COc1cc2ccc(=O)oc2cc1O[C@@H]1O[C@H](CO[C@@H]2O[C@@H](C)[C@H](O)[C@@H](O)[C@H]2O)[C@@H](O)[C@H](O)[C@H]1O [HAPLOPEROSIDE]	> 125	> 125	> 100	> 50	–
CC(=O)O[C@@H]1C[C@H]2C(C)(C)OC(=O)C=C[C@]2(C)[C@H]2CC[C@@]3(C)[C@H](c4ccoc4)OC(=O)[C@H]4O[C@]43[C@@]21C	45 (≈ 90.3 µM)	> 125	9.3 (≈ 18.7 µM)	> 50	–
C[C@@H]1O[C@@H](O[C@H]2[C@H](Oc3cc(=O)n(C)c4ccccc34)O[C@H](CO)[C@@H](O)[C@@H]2O)[C@H](O)[C@H](O)[C@H]1O [KATIMBORINE]	> 125	> 125	> 100	> 50	–
Cn1c2c(O)cccc2c(=O)c2c(O)cc3c(c21)C=CC(C)(C)O3	11.2 (≈ 34.6 µM)	125 (≈ 387 µM)	0.9 (≈ 2.78 µM)	9.3 (≈ 28.8 µM)	10
CC[C@@]1(O)C(=O)OCc2c1cc1n(c2=O)Cc2cc3ccccc3nc2-1 [CAMPTOTHECIN]	–	–	–	0.6 (≈ 1.72 µM)	–
CC1(C)C=Cc2c(ccc3ccc(=O)oc23)O1 [SESALIN]	> 125	> 125	> 100	> 50	–
